Tests used:
Assay type in all cases: in vivo
Jimson Weed = test: Selective post-emergent greenhouse test, Jimson Weed; conditions: post-emergence, 336 h, 2 weeks; for pest or weed control at 358.672 g/ha: 0.32 lbs/acre; for pest or weed control at 706.135 g/ha: 0.63 lbs/acre
Excerpt: (§1) So as to illustrate clearly the phytotoxic properties of the various active ingredients of the present invention, a group of controlled greenhouse experiments is described below.
(§2) Various species of plants, both broadleaf weeds and valuable crops, were planted in beds of good agricultural soil in a greenhouse. After the plants had emerged and grown to a height of about 2-6 inches, a portion of the plants were sprayed with an aqueous mixture, made by mixing a selected active ingredient and emulsifier or dispersant with water to provide solution containing 250 or 125 ppm active ingredient, employing sufficient amounts of the treating composition to provide low post emergent application rates of about 0.63 or 0.32 pounds per acre. Other portions of the plants were left untreated to serve as controls. In each test the active ingredient was a 3-methylethyl-1H-2,1,3-benzothiadiazin-4(3H)-one-2,2-dioxide having a substituent in the one position according to the invention.
(§3) After a period of 2 weeks the selective effect of the test ingredient on the plants was evaluated by a comparison with the control group of plants.

Velvet Leaf [1] = test: Selective post-emergent greenhouse test, Velvet Leaf; conditions: post-emergence, 336 h, 2 weeks; for pest or weed control at 358.672 g/ha: 0.32 lbs/acre; for pest or weed control at 706.135 g/ha: 0.63 lbs/acre
Excerpt: as §1, §2, §3

Soybean = test: Selective post-emergent greenhouse test, Soybean (crop injury); conditions: Glycine max, post-emergence, 336 h, 2 weeks, read-out: % Control Soybean; for plant injury at 358.672 g/ha: 0.32 lbs/acre; for plant injury at 706.135 g/ha: 0.63 lbs/acre
Excerpt: as §1, §2, §3

Cotton = test: Selective post-emergent greenhouse test, Cotton (crop injury); conditions: Gossypium hirsutum, post-emergence, 336 h, post-emergent, 2 weeks, crop, read-out: % Control Cotton; for plant injury at 358.672 g/ha: 0.32 lbs/acre; for plant injury at 706.135 g/ha: 0.63 lbs/acre
Excerpt: as §1, §2, §3

Nutsedge = test: General post-emergent herbicidal activity at 10 lbs/acre, Nutsedge; conditions: Cyperus, post-emergence, 336 h
Excerpt: as §2, with “[…], […]” for “emulsifier or dispersant with water to provide solution containing 250 or 125 ppm active ingredient, employing sufficient amounts of the treating composition to provide low post emergent application rates of about 0.63 or 0.32 pounds per acre.”
as §3

Pig Weed = test: General post-emergent herbicidal activity at 10 lbs/acre, Pig Weed; conditions: post-emergence, 336 h
Excerpt: as §2, with “[…], […]” for “emulsifier or dispersant with water to provide solution containing 250 or 125 ppm active ingredient, employing sufficient amounts of the treating composition to provide low post emergent application rates of about 0.63 or 0.32 pounds per acre.”
as §3

Annual Morning Glory = test: General post-emergent herbicidal activity at 10 lbs/acre, Annual Morning Glory; conditions: Ipomoea, post-emergence, 336 h
Excerpt: as §2, with “[…], […]” for “emulsifier or dispersant with water to provide solution containing 250 or 125 ppm active ingredient, employing sufficient amounts of the treating composition to provide low post emergent application rates of about 0.63 or 0.32 pounds per acre.”
as §3

Velvet Leaf [2] = test: General post-emergent herbicidal activity at 10 lbs/acre, Velvet Leaf; conditions: post-emergence, 336 h
Excerpt: as §2, with “[…], […]” for “emulsifier or dispersant with water to provide solution containing 250 or 125 ppm active ingredient, employing sufficient amounts of the treating composition to provide low post emergent application rates of about 0.63 or 0.32 pounds per acre.”
as §3

| SMILES | pest or weed control at 358.672 g/ha (Jimson Weed) [%] | pest or weed control at 706.135 g/ha (Jimson Weed) [%] | pest or weed control at 358.672 g/ha (Velvet Leaf [1]) [%] | pest or weed control at 706.135 g/ha (Velvet Leaf [1]) [%] | plant injury at 358.672 g/ha (Soybean) [%] | plant injury at 706.135 g/ha (Soybean) [%] | plant injury at 358.672 g/ha (Cotton) [%] | plant injury at 706.135 g/ha (Cotton) [%] | pest or weed control at 11208.5 g/ha (Nutsedge) [%] | pest or weed control at 11208.5 g/ha (Pig Weed) [%] | pest or weed control at 11208.5 g/ha (Annual Morning Glory) [%] | pest or weed control at 11208.5 g/ha (Velvet Leaf [2]) [%] |
| --- | --- | --- | --- | --- | --- | --- | --- | --- | --- | --- | --- | --- |
| COCC(=O)N1c2ccccc2C(=O)N(C(C)C)S1(=O)=O [COCH2 OCH3, 1H-2,1,3-Benzothiadiazin-4(3H)-one: 1-methoxyacetyl-3-(1-methylethyl)-; 2,2-dioxide] | 100 | 100 | 80 | 100 | 0 | 0 | 0 | 0 | 90 | 100 | 100 | 100 |
| CSC(=O)N1c2ccccc2C(=O)N(C(C)C)S1(=O)=O [COSCH3, 1H-2,1,3-Benzothiadiazin-1-carbothioic acid: 3,4-Dihydro-3-(1-methylethyl)-4-oxo-, S-methyl ester; 2,2-Dioxide] | 100 | 100 | 90 | 100 | 0 | 0 | 90 | 100 | 85 | 100 | 100 | 100 |
| CC(C)N1C(=O)c2ccccc2N(S(=O)(=O)CCl)S1(=O)=O [SO2 CHCl, 1H-2,1,3-Benzothiadiazin-4(3H)-one: 1-chloromethylsulfonyl-3-(1-methylethyl)-; 2,2-dioxide] |  |  |  |  |  |  |  |  | 90 | 100 | 80 | 100 |
| CCCCS(=O)(=O)N1c2ccccc2C(=O)N(C(C)C)S1(=O)=O [SO2 (CH2)3 CH3, 1H-2,1,3-Benzothiadiazin-4(3H)-one: 1-Butylsulfonyl-3-(1-methylethyl)-; 2,2-dioxide] |  |  |  |  |  |  |  |  | 85 | 100 | 100 | 100 |
| CCS(=O)(=O)N1c2ccccc2C(=O)N(C(C)C)S1(=O)=O [SO2 CH2 CH3, 1H-2,1,3-Benzothiadiazin-4(3H)-one; 1-Ethylsulfonyl-3-(1-methylethyl)-; 2,2-dioxide] |  |  |  |  |  |  |  |  | 85 | 100 | 100 | 100 |
| C=CCOC(=O)N1c2ccccc2C(=O)N(C(C)C)S1(=O)=O [CO2 CH2 CHCH2, 1H-2,1,3-Benzothiadiazine-1-carboxylic Acid: 3,4-dihydro-3-(1-methylethyl)-4-oxo-, 2-Propenyl Ester, 2,2-Dioxide] | 100 | 100 | 100 | 100 | 0 | 0 | 50 | 50 | 95 | 100 | 100 | 100 |
| CC(Cl)C(=O)N1c2ccccc2C(=O)N(C(C)C)S1(=O)=O (stereo not shown) [COCHClCH3, 1H-2,1,3-Benzothiadiazin-4(3H)-one: 1-(2-chloro-1-oxopropyl)-3-(1-methylethyl)-; 2,2-dioxide] | 100 | 100 | 100 | 100 | 0 | 0 | 0 | 100 | 95 | 100 | 100 | 100 |
| CC=CC(=O)N1c2ccccc2C(=O)N(C(C)C)S1(=O)=O [COCHCHCH3, 1H-2,1,3-Benzothiadiazin-4(3H)-one: 3-(1-methylethyl)-1-(1-oxo-2-butenyl)-;2,2-dioxide] |  | 100 | 70 | 100 | 0 | 0 | 0 | 0 | 90 | 100 | 100 | 100 |
| CCSC(=O)N1c2ccccc2C(=O)N(C(C)C)S1(=O)=O [COSCH2 CH3, 1H-2,1,3-Benzothiadiazine-1-carbothioic acid: 3,4-Dihydro-3-(1-methylethyl)-4-oxo, S-ethyl ester; 2,2-dioxide] | 100 | 100 | 100 | 100 | 0 | 0 | 100 | 100 | 95 | 100 | 100 | 100 |
| CC(C)N1C(=O)c2ccccc2N(C(=O)CCl)S1(=O)=O [COCH2 Cl, 1-(2-Chloroacetyl)-3-(1-methylethyl)-1H-2,1,3-benzothiadiazin-4(3H)-one-2,2-Dioxide] | 100 | 100 | 70 | 100 | 10 | 10 | 20 | 70 | 100 | 100 | 100 | 100 |
| CC(C)N1C(=O)c2ccccc2N(S(=O)(=O)C(C)C)S1(=O)=O [SO2 CH(CH3)2, 1H-2,1,3-Benzothiadiazin-4(3H)-one: 3-(1-methylethyl)-1-(1-methylethylsulfonyl)-; 2,2-dioxide] |  |  |  |  |  |  |  |  | 85 | 100 | 100 | 100 |
| CC(C)N1C(=O)c2ccccc2N(S(C)(=O)=O)S1(=O)=O [SO2 CH3, 1H-2,1,3-Benzothiadiazin-4(3H)-one: 3-(1-methylethyl)-1-methylsulfonyl-; 2,2-dioxide] |  |  |  |  |  |  |  |  | 20 | 100 | 100 | 100 |
| CCN(CC)S(=O)(=O)N1c2ccccc2C(=O)N(C(C)C)S1(=O)=O [SO2 N(C2 H5)2] |  |  |  |  |  |  |  |  | 60 | 100 | 100 | 100 |
| CC(C)OC(=O)N1c2ccccc2C(=O)N(C(C)C)S1(=O)=O [CO2 CH(CH3)2] |  |  |  |  |  |  |  |  | 70 | 0 | 50 | 100 |
| CCCCOC(=O)N1c2ccccc2C(=O)N(C(C)C)S1(=O)=O [CO2 (CH2)3 CH3] |  |  |  |  |  |  |  |  | 95 | 100 | 100 | 100 |
| CCCOC(=O)N1c2ccccc2C(=O)N(C(C)C)S1(=O)=O [CO2 CH2 CH2 CH3] |  |  |  |  |  |  |  |  | 90 | 100 | 100 | 100 |
| CCCC(=O)N1c2ccccc2C(=O)N(C(C)C)S1(=O)=O [COCH2 CH2 CH3] |  |  |  |  |  |  |  |  | 90 | 100 | 100 | 100 |
| CCCS(=O)(=O)N1c2ccccc2C(=O)N(C(C)C)S1(=O)=O [SO2 CH2 CH 2 CH3, 1H-2,1,3-Benzothiadiazin-4(3H)-one: 3-(1-methylethyl)-1-propylsulfonyl-; 2,2-dioxide] |  |  |  |  |  |  |  |  | 90 | 100 | 100 | 100 |

Source: US4208514A, “4(3H)-Oxobenzo-2,1,3-thiadiazine-2,2-dioxides” (The Dow Chemical Company, priority 1976, dated 1980)
